According to a melting point compilation (Tetko et al.; mined from patent text by program, amines drawn as free bases though some values may be those of a salt):

| SMILES | melting point |
| --- | --- |
| COCc1cc2c(cc1O)CCC1C2CCC2(C)C(=O)CCC12 (stereo not drawn) | 149 to 151 °C |
| COc1ccccc1NC(=O)Nc1nc(Nc2ccccc2C(=O)O)nc(Nc2ccccc2-c2ccccc2)n1 | 228 °C |
| CC1=NN(C(=O)c2ccccc2Cl)C2(O)CCCC12 (stereo not drawn) | 147 to 150 °C |
| CCn1c(=O)n(CCCCC(C)(C)O)c(=O)c2[nH]cnc21 | 112 to 114 °C |
| Cc1nc(Br)sc1C(=O)N[C@H](C)[C@](O)(Cn1cncn1)c1ccc(F)cc1F | 155 to 163 °C |
| CCOC(=O)C=CC=Cc1ccc(C=Cc2nc(-c3ccco3)oc2C)cc1 | 155 to 156 °C |
| COc1nc(Cl)n2nc(SCc3ccccc3)nc2c1Br | 124 to 125 °C |
| CCOC(=O)CCCn1c(C(=O)O)cc2cc(C)ccc21 | 142 °C |
| CC(=O)C(C)(C#N)c1ccc2c(c1)Cc1cccnc1O2 (stereo not drawn) | 164 °C |
| CC1=C(C(=O)OC(CN2CCCCC2)c2ccccc2)C(c2cccc([N+](=O)[O-])c2)n2nccc2N1 (stereo not drawn) | 92 to 93 °C |
| CN1CCN(c2ccccc2C=C2C(=O)N(Cc3ccc(Cl)c(Cl)c3)c3ccccc32)CC1 | 120 to 124 °C |
| COc1ccccc1N1CCN(CCOc2ccc(-c3cn4ccccc4n3)cc2)CC1 | 151 to 153 °C |
| O=C(O)c1csnc1-c1ccc(Cl)c(Cl)c1 | 247 to 248 °C |
| CN1C(=O)CC[C@]2(C)c3ccc(-c4ccc5ccccc5c4)cc3CC[C@@H]12 | 221 to 223 °C |
| O=c1[nH]c(=O)c2ccc(C(c3ccccc3)n3ccnc3)cc2[nH]1 (stereo not drawn) | 287 °C |
| Nc1cc(Cl)cc(Cc2cc(Cl)cc(N)c2O)c1O | 212 to 215 °C |
| COC(=O)c1ccc(-c2n[nH]c(-c3ccccc3)n2)cc1 | 243 to 244 °C |
| COc1ccc2c(c1OCc1ccccc1)CC(C(=O)O)N(C(=O)C(c1ccc(Cl)cc1)c1ccc(Cl)cc1)C2 (racemic) | 186 to 188 °C |
| CC(=O)Nc1nc(Cl)c(NC=O)c(N[C@@H]2C=C[C@H](CO)C2)n1 (relative stereo) | 194 to 195 °C |
| CC(C)Sc1cc2c(cc1Cl)N=C(C(Cl)Cl)NS2(=O)=O | 287 to 289 °C |
| Clc1c(-c2ccccc2)noc1NCC#CI | 133 to 135 °C |
| OC1CCN(c2nnc(Cl)c3ccccc23)CC1 | 139 to 142 °C |
| O=C1Nc2ccccc2C(c2ccccc2)N1CC1CCN(Cc2ccccc2)CC1 (stereo not drawn) | 163 to 165 °C |
| Nc1nc(N)c2nc(N)n(COC(CO)CO)c2n1 | 206 to 208 °C |
| CC=C(NC(=O)CC(C)C)C(=O)O | 172 to 174 °C |

| SMILES | melting point |
| --- | --- |
| O=C1CCCc2ccc(OCCCC(=O)N3CCOCC3)cc21 | 88 to 90 °C |
| O=C(NCCCO)c1cc(O)c(O)c([N+](=O)[O-])c1 | 160 to 163 °C |
| Cc1ccc(S(=O)(=O)CC(=O)NN=C2C(=O)Nc3ccc(I)cc32)cc1 | 257 °C |
| COC(=O)c1cscc1NC(=O)COc1ccc(Cl)c(Cl)c1 | 179 to 182 °C |
| CCSc1cc(O)c(C#N)s1 | 105 °C |
| CCCN1CCN(c2nc(C)c(C(=O)NCc3cccnc3)s2)C1=O | 109 to 111 °C |
| CCCCCN(CCCCC)C(=O)CCCCC(=O)O | 152 °C |
| Cc1cc(Cl)cc(Cl)c1N1CCn2c1nc1c(Cl)ccc(C(O)(C3CC3)C3CC3)c12 | 193 to 196 °C |
| Cc1c(Cl)cc(C(C)C)c(-c2c(C(C)C)cc(Cl)c(C)c2O)c1O | 98 °C |
| COc1cc(OC)c(-c2csc(N)n2)cc1Cl | 162 °C |
| COc1ccc2c(-c3ccccc3F)noc2c1 | 101 to 103 °C |
| c1ccc(Nc2nc(-c3ccncc3)nc3ccccc23)cc1 | 270 to 274 °C |
| COc1cc(COc2nn(-c3ccccc3)cc2CC(=O)O)ccc1OCc1nc(-c2ccco2)oc1C | 179 to 180 °C |
| COc1ccc(CN2CCN(c3nc(C)c(C(N)=O)s3)C2=O)cc1F | 182 to 184 °C |
| COc1ccc2c(Cl)nc(C(=O)NCCO)c(O)c2c1 | 117 to 119 °C |
| COc1cc(CCN2CCC[C@H](C(C#N)(c3ccccc3)c3ccccc3)C2)ccc1O | 159 to 160 °C |
| Cn1cc(CC(=O)O)c2cc(-c3ccc(C(F)(F)F)cc3)ccc21 | 167 to 168 °C |
| COc1ccc(-c2n[nH]c(=O)cc2-c2ccc(OC)c(F)c2)cc1 | 213 °C |
| COC(=O)C(Cc1ccccc1)NC(=O)C(CC(=O)O)NC(=O)C(N)C(C)C(=O)O (stereo not drawn) | 172 to 175 °C |
| CNC(=O)C1CC(C)(C)Oc2ccc([N+](=O)[O-])cc21 (stereo not drawn) | 161 to 162 °C |
| Cn1cc(C2=C(c3c4n(c5ccccc35)CCC(C(N)=O)C4)C(=O)OC2=O)c2ccccc21 (stereo not drawn) | 307 to 309 °C |
| CNc1nc(Cl)c(Cl)c(N2CCN(CC[C@H]3CC[C@H](NC(=O)OC(C)(C)C)CC3)CC2)n1 | 199 to 202 °C |
| CC(C(=O)NC(C)(C#N)C(C)C)c1ccc(Br)cc1 (stereo not drawn) | 98 to 99 °C |
| Nc1c(C(=O)Nc2nnn[nH]2)oc2ccccc12 | 185 °C |
| COc1cc2c(cc1C(=O)Cc1ccc(C(=O)O)cc1)C(C)(C)CCC2(C)C | 164 to 165 °C |

| SMILES | melting point |
| --- | --- |
| OC(Cc1ccccc1Cl)(Cn1cncn1)C1(Cl)CC1 (stereo not drawn) | 107 °C |
| CC1=NN(CC(C)C)S(=O)(=O)c2sc(S(N)(=O)=O)cc21 | 140 to 142 °C |
| CCCn1nc2c(N)nc3ccccc3c2c1CCN(CC)C(N)=O | 206 to 207 °C |
| COc1cccc2c1CC(N(CCCc1cn(C)c3ccc(F)cc13)CC1CC1)CO2 (stereo not drawn) | 86 °C |
| CCCNC(=S)NC1=Nc2ccccc2CS1 | 180 to 184 °C |
| CNC(=O)c1ccccc1Nc1nc(Nc2ccc3c(c2)COC[C@@H]2CCCN32)ncc1Cl | 216 to 218 °C |
| CC1CC(=O)c2ccc(F)cc2O1 (stereo not drawn) | 42 to 47 °C |
| CC1(C)Oc2ccc3nc(C(N)=O)ccc3c2C(NCCc2ccccc2)C1O (stereo not drawn) | 197 to 199 °C |
| c1ccc2c(c1)cc1n2CC2(CCNC2)C1 (stereo not drawn) | 90 to 92 °C |
| CCOC(=O)c1nc(C)n2c1CN=C(c1ccccn1)c1cc(Br)ccc1-2 | 240 to 243 °C |
| CC1=C(C(=O)NC(C)(C)C)C(c2ccccc2Cl)C(C(=O)NC(C)C)=C(COCCn2c(C)nc3ccccc32)N1 (stereo not drawn) | 191 to 193 °C |
| NC(=O)c1ccc(NC2CCN(Cc3ccccc3)CC2)cc1 | 192 to 193 °C |
| CC(C)n1nc(-c2sc(NC(=O)c3ccccn3)nc2-c2ccccc2)ccc1=O | 245 to 246 °C |
| C#Cc1ccc(OC)c(OCC)c1 | 95 to 96 °C |
| CSc1nc(O)nn1C(C)C | 90 to 92 °C |
| CCN1C(=O)C(C)(C)C(=O)N(C)c2cc(CN(CCn3ccc4oc(C)cc4c3=O)Cc3cccnc3)ccc21 | 124 to 127 °C |
| Cc1nnc2ccc(-c3ccsc3)nn12 | 154 to 156 °C |
| CS(=O)(=O)c1ccc(C(CC2CCCC2)C(=O)Nc2ccccn2)cc1Br (stereo not drawn) | 99 to 101 °C |
| COc1ccc(NCC(=O)N2CCC(Cc3ccccc3)CC2)cc1 | 117 to 119 °C |
| CN1CCc2c(cccc2NC(=O)c2ccccc2I)C1 | 215 to 216 °C |
| Nc1nc(Cc2ccc(Br)cc2)cc(C2CCN(C(=O)c3ccc4c(c3)OCO4)CC2)n1 | 162 °C |
| OCC#Cc1ccccn1 | 78 to 80 °C |
| CCC(CC)Nc1c([N+](=O)[O-])cc(C(C)C)c(C=CN(C)C)c1[N+](=O)[O-] | 88 to 89.5 °C |
